The values below come from patent EP2272817A1, “PAI-1 INHIBITOR” (Institute of Medicinal Molecular Design, Inc., priority 2008, dated 2009).

This experiment has as its target recombinant human PAI-1 (Homo sapiens, UniProt P05121). The experiment in a line: Test Example 2: Human PAI-1 Inhibitory Activity (pH 7.4 HEPES buffer, 10 minutes incubation with two-chain tPA). The arrangement: purchased Molecular Innovations, Inc. The conditions noted are these: for inhibition at 0.1 µM / inhibition at 0.3 µM / inhibition at 1 µM / inhibition at 3 µM: read-out: Inhibition Rate of PAI-1 Activity (%). In kind it is biochemical. The procedure:
0.1 M HEPES, 0.1 M NaCl. 1 mM EDTA. 0.1 % Polyethylene glycol 8,000 (Hampton Research Corporation),
2 mM Dimethyldecylphoshine oxide [Apo-10] (Fluka Corporation)

Chain of recombinant human PAI-1 (P05121 24-402): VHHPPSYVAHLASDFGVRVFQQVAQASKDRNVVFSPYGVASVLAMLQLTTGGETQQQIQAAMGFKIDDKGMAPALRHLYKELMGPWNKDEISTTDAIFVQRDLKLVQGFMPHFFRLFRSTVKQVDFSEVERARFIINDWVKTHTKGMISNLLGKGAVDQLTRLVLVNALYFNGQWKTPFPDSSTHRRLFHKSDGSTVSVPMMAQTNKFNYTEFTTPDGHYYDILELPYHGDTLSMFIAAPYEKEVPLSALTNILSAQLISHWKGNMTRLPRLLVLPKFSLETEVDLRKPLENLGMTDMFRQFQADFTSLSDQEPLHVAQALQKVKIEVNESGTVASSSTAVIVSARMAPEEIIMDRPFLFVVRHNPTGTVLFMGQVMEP

Usually inhibition stands for the change of the read-out against control, counted positive when it falls. Consider `CC(C)(C)c1cccc(Oc2cc(-c3ccc(OC(F)(F)F)cc3)ccc2/C=C/C(=O)O)c1` [Compound 335], for which the inhibition at 0.1 µM is 4%, the inhibition at 0.3 µM was 8%, the inhibition at 1 µM is 80% and the inhibition at 3 µM is > 99%.

For the compound `CC(C)(C)c1cccc(Oc2cc(-c3ccc(OC(F)(F)F)cc3)ccc2CCC(=O)O)c1` [Compound 336], the inhibition at 0.1 µM was 0%, the inhibition at 0.3 µM was 5%, the inhibition at 1 µM turned out to be 45% and the inhibition at 3 µM was > 99%.

In the case of `O=C(O)COc1ccc(-c2ccc(OC(F)(F)F)cc2)cc1OCCCCc1ccccc1` [Compound 337], the inhibition at 0.1 µM came out at 2%, the inhibition at 0.3 µM stood at 8%, the inhibition at 1 µM stood at 19% and the inhibition at 3 µM turned out to be 97%.

On to `CC(C)(C)OCCOc1ccc(-c2ccc(OC(F)(F)F)cc2)cc1N(CCCCc1ccccc1)C(=O)C(=O)O` [Compound 351], for which the inhibition at 0.1 µM was determined as 2%, the inhibition at 0.3 µM was determined as 7%, the inhibition at 1 µM was 23% and the inhibition at 3 µM was determined as 84%.

`CCCCCCCOc1ccc(-c2ccc(OC(F)(F)F)cc2)cc1N(CCCCc1ccccc1)C(=O)C(=O)O` [Compound 352]: the inhibition at 0.1 µM was determined as 0%, the inhibition at 0.3 µM was 4%, the inhibition at 1 µM worked out at 72% and the inhibition at 3 µM worked out at 90%.

As for `CCCCCCCCOc1ccc(-c2ccc(OC(F)(F)F)cc2)cc1N(CCCCc1ccccc1)C(=O)C(=O)O` [Compound 353], the inhibition at 0.1 µM was found to be 6%, the inhibition at 0.3 µM worked out at 19%, the inhibition at 1 µM was 87% and the inhibition at 3 µM was found to be 87%.

Turning to `O=C(O)C(=O)N(CCCCc1ccccc1)c1cc(-c2ccc(OC(F)(F)F)cc2)ccc1OCCCCc1ccccc1` [Compound 354], the inhibition at 0.1 µM amounted to 5%, the inhibition at 0.3 µM is 10%, the inhibition at 1 µM was determined as 91% and the inhibition at 3 µM amounted to 89%.

With `O=C(O)C(=O)N(CCCCc1ccccc1)c1cc(-c2ccc(OC(F)(F)F)cc2)ccc1OCCCC1CCCC1` [Compound 355], the inhibition at 0.1 µM worked out at 2%, the inhibition at 0.3 µM came out at 3%, the inhibition at 1 µM amounted to 91% and the inhibition at 3 µM came to 86%.

On to `CCCCCOc1ccc(-c2ccc(OC(F)(F)F)cc2)cc1N(CCCOc1ccccc1)C(=O)C(=O)O` [Compound 356], for which the inhibition at 0.1 µM came out at 7%, the inhibition at 0.3 µM came to 13%, the inhibition at 1 µM was 53% and the inhibition at 3 µM is > 99%.

Regarding `CCCCCOc1ccc(-c2ccc(OC(F)(F)F)cc2)cc1N(CCCSc1ccccc1)C(=O)C(=O)O` [Compound 357], the inhibition at 0.1 µM worked out at 0%, the inhibition at 0.3 µM came out at 2%, the inhibition at 1 µM was determined as 69% and the inhibition at 3 µM is > 99%.

Take `CCCCCN(C(=O)C(=O)O)c1cc(-c2ccc(OC(F)(F)F)cc2)ccc1OCCCCc1ccccc1` [Compound 358]: the inhibition at 0.1 µM was found to be 0%, the inhibition at 0.3 µM turned out to be 10%, the inhibition at 1 µM stood at 55% and the inhibition at 3 µM was 98%.

`CCCCCOc1ccc(-c2ccc(F)cc2)cc1N(CCCCc1ccccc1)C(=O)C(=O)O` [Compound 359]: the inhibition at 0.1 µM was determined as 1%, the inhibition at 0.3 µM worked out at 7%, the inhibition at 1 µM was 26% and the inhibition at 3 µM amounted to 96%.

For the compound `CCCCCOc1ccc(-c2ccccc2)cc1N(CCCCc1ccccc1)C(=O)C(=O)O` [Compound 360], the inhibition at 0.1 µM was found to be 5%, the inhibition at 0.3 µM stood at 8%, the inhibition at 1 µM amounted to 35% and the inhibition at 3 µM worked out at 92%.

Consider `CCCCCOc1ccc(-c2ccc(Cl)cc2)cc1N(CCCCc1ccccc1)C(=O)C(=O)O` [Compound 361], for which the inhibition at 0.1 µM came to 9%, the inhibition at 0.3 µM worked out at 5%, the inhibition at 1 µM stood at 68% and the inhibition at 3 µM is 97%.

Turning to `CCCCCOc1cc(Oc2ccc(OC(F)(F)F)cc2)ccc1N(CCCCc1ccccc1)C(=O)C(=O)O` [Compound 362], the inhibition at 0.1 µM was found to be 11%, the inhibition at 0.3 µM was determined as 18%, the inhibition at 1 µM was determined as 61% and the inhibition at 3 µM was > 99%.

With `CCCCCOc1ccc(Oc2ccc(OC(F)(F)F)cc2)cc1N(CCCCc1ccccc1)C(=O)C(=O)O` [Compound 363], the inhibition at 0.1 µM was 2%, the inhibition at 0.3 µM worked out at 4%, the inhibition at 1 µM was determined as 72% and the inhibition at 3 µM was > 99%.

As for `CCCCCCCCCOc1ccc(-c2ccc(OC(F)(F)F)cc2)cc1N(CCCCc1ccccc1)C(=O)C(=O)O` [Compound 364], the inhibition at 0.1 µM worked out at 41%, the inhibition at 0.3 µM came out at 94%, the inhibition at 1 µM is 97% and the inhibition at 3 µM turned out to be 92%.

As to `CCCCCCCCCCOc1ccc(-c2ccc(OC(F)(F)F)cc2)cc1N(CCCCc1ccccc1)C(=O)C(=O)O` [Compound 365], the inhibition at 0.1 µM is 41%, the inhibition at 0.3 µM stood at 97%, the inhibition at 1 µM worked out at 97% and the inhibition at 3 µM was found to be 92%.

As for `CCCCCOc1ccc(-c2ccc(OC(F)(F)F)cc2)cc1N(CCCCC)C(=O)C(=O)O` [Compound 366], the inhibition at 0.1 µM turned out to be 8%, the inhibition at 0.3 µM came to 24%, the inhibition at 1 µM is 46% and the inhibition at 3 µM came to 96%.

For the compound `CCCCCOc1cc(-c2ccc(OC(F)(F)F)cc2)ccc1N(CCCCc1ccccc1)C(=O)C(=O)O` [Compound 367], the inhibition at 0.1 µM turned out to be 10%, the inhibition at 0.3 µM amounted to 26%, the inhibition at 1 µM turned out to be 52% and the inhibition at 3 µM is 94%.

On to `O=C(O)C(=O)N(CCCCc1ccccc1)c1cc(-c2ccc(OC(F)(F)F)cc2)ccc1OC1CCCCC1` [Compound 368], for which the inhibition at 0.1 µM turned out to be 0%, the inhibition at 0.3 µM stood at 22%, the inhibition at 1 µM stood at 95% and the inhibition at 3 µM was determined as 85%.

As for `CCC(CC)Oc1ccc(-c2ccc(OC(F)(F)F)cc2)cc1N(CCCCc1ccccc1)C(=O)C(=O)O` [Compound 369], the inhibition at 0.1 µM came out at 0%, the inhibition at 0.3 µM stood at 8%, the inhibition at 1 µM was found to be 70% and the inhibition at 3 µM turned out to be 95%.

As for `O=C(O)C(=O)N(CCCCc1ccccc1)c1cc(-c2ccc(OC(F)(F)F)cc2)ccc1N1CCCCC1` [Compound 370], the inhibition at 0.1 µM came out at 0%, the inhibition at 0.3 µM amounted to 0%, the inhibition at 1 µM turned out to be 66% and the inhibition at 3 µM was found to be 97%.

The term IC50 denotes the concentration that gives 50% inhibition. For the compound `CCCCCCCc1ccc(-c2ccc(OC(F)(F)F)cc2)cc1N(CCCCc1ccccc1)C(=O)C(=O)O` [Compound 371], the inhibition at 0.1 µM is 10%, the inhibition at 0.3 µM was determined as 17%, the inhibition at 1 µM was found to be 93% and the inhibition at 3 µM is 91%. The IC50 (concentration that inhibits 50 % of the human PAI-1 activity, calculated from the inhibition rates of Test Example 2, read-out: IC50) is 690 nM.

For the compound `CCCCCOc1cc(-c2ccc(OC(F)(F)F)cc2)cc(N(CCCCc2ccccc2)C(=O)C(=O)O)c1OCCCCC` [Compound 372], the inhibition at 0.1 µM is 2%, the inhibition at 0.3 µM came out at 27%, the inhibition at 1 µM is 97% and the inhibition at 3 µM is 93%.

In the case of `CC(C)(C)Oc1ccc(-c2ccc(OC(F)(F)F)cc2)cc1N(CCCCc1ccccc1)C(=O)C(=O)O` [Compound 373], the inhibition at 0.1 µM was 0%, the inhibition at 0.3 µM was 0%, the inhibition at 1 µM worked out at 28% and the inhibition at 3 µM was 90%.

Consider `CCCCCOc1ccc(-c2ccc(OC(F)(F)F)cc2)cc1N(CCCCOc1ccccc1)C(=O)C(=O)O` [Compound 374], for which the inhibition at 0.1 µM is 5%, the inhibition at 0.3 µM is 16%, the inhibition at 1 µM amounted to 57% and the inhibition at 3 µM is > 99%.

As to `CCCCCCCCCCCCCCCOc1ccc(-c2ccc(OC(F)(F)F)cc2)cc1N(CCCCc1ccccc1)C(=O)C(=O)O` [Compound 375], the inhibition at 0.1 µM was 73%, the inhibition at 0.3 µM amounted to 97%, the inhibition at 1 µM was > 99% and the inhibition at 3 µM is 79%.

Regarding `CCCCCOc1cc(-c2cccc(C)c2)ccc1N(CCCCc1ccccc1)C(=O)C(=O)O` [Compound 376], the inhibition at 0.1 µM was found to be 6%, the inhibition at 0.3 µM came to 15%, the inhibition at 1 µM was determined as 62% and the inhibition at 3 µM was found to be 95%.

In the case of `CCCCCOc1cc(-c2cccc(C(F)(F)F)c2)ccc1N(CCCCc1ccccc1)C(=O)C(=O)O` [Compound 377], the inhibition at 0.1 µM was 1%, the inhibition at 0.3 µM turned out to be 23%, the inhibition at 1 µM was determined as 83% and the inhibition at 3 µM amounted to 94%.

In the case of `CCCCCOc1ccc(-c2cccc(C(F)(F)F)c2)cc1N(CCCCc1ccccc1)C(=O)C(=O)O` [Compound 378], the inhibition at 0.1 µM came out at 20%, the inhibition at 0.3 µM was found to be 7%, the inhibition at 1 µM was 80% and the inhibition at 3 µM was determined as 91%.

As to `CCCCCOc1ccc(-c2cccc(C)c2)cc1N(CCCCc1ccccc1)C(=O)C(=O)O` [Compound 379], the inhibition at 0.1 µM amounted to 14%, the inhibition at 0.3 µM was 17%, the inhibition at 1 µM was found to be 78% and the inhibition at 3 µM is 92%.

`CCCCCCCCCOc1cc(-c2ccc(OC(F)(F)F)cc2)ccc1N(CCCCc1ccccc1)C(=O)C(=O)O` [Compound 380]: the inhibition at 0.1 µM stood at 76%, the inhibition at 0.3 µM came out at 96%, the inhibition at 1 µM was 97% and the inhibition at 3 µM is > 99%.

As for `O=C(O)C(=O)N(CCCCc1ccccc1)c1cc(-c2ccc(OC(F)(F)F)cc2)ccc1OCCCCC(F)(F)F` [Compound 381], the inhibition at 0.1 µM was 12%, the inhibition at 0.3 µM was determined as 13%, the inhibition at 1 µM came out at 48% and the inhibition at 3 µM was > 99%.
